Source: patent publication US7795223B2, “Treatment of inflammatory airway disease” (Novozymes Biopharma Au Ltd., priority 2004, dated 2010)

Legend:
BALB/c mice [1] = test: Murine OVA model of asthma: BAL cell counts and lung histology; format: in vivo, mouse; conditions: for eosinophilia on lung histology / eosinophil infiltration into lung tissue: peptide i.n. 24 h before i.n. OVA challenge
Protocol: A murine model in which immunization with ovalbumin (OVA) is used to induce asthma-like symptoms in normal Balb/c mice was employed. This model is described in Archer et al. 2004.
Mice were immunized against OVA by i.p. injection and fourteen days later an intra-nasal (i.n.) challenge dose of OVA protein was administered. Three days later the degree of airway inflammation was assessed by bronchoalveolar lavage (BAL,) followed by counting the infiltrating leukocytes. In addition, the lungs were sectioned and stained with haematoxylin and eosin for histological analysis. In a preliminary experiment, live mice were monitored after treatment using whole body plethysmography to assess the degree of airway obstruction.
Female BALB/c mice (6-8 wk of age) were injected i.p. with 10 μg of OVA (Sigma-Aldrich, St. Louis, Mo.) in 200 μl of alum adjuvant (Serva, Heidelberg, Germany) on day 1. Fourteen days after the i.p. immunization, mice were anaesthetized by an i.p. injection of a mixture of ketamine and xylazine (Sigma-Aldrich), and treated i.n. with 50 μl of PBS containing 100 μg of OVA.
In preliminary experiments the peptide or “mock” peptide was given at either of two different time points (24 h prior to i.p. OVA sensitization or 24 h prior to i.n. OVA challenge) at a final concentration of either 1 mM (solution) or 50 mM (suspension) in phosphate-buffered saline (PBS; 0.02 M sodium phosphate buffer with 0.15 M sodium chloride, pH adjusted to 7.4.). The 50 mM concentration of the TCR peptide was chosen because 500 μM was the optimal blocking concentration for T cells in in vitro experiments. However, experiments using titration of the peptide will be used to determine the optimal dose. A 100 μl volume of formulated peptide was administered to the mice intranasally. […]
Three days after the i.n. challenge with OVA, the mice from the different groups were sacrificed, the tracheas were cannulated, and a BAL was performed by flushing lung and airways five times with 1 ml of PBS. BAL cells were counted and spun on to glass slides using a cytospin (Shandon Southern Products, Asmoor, U.K.), and then stained with Diff-Quik (Roche Diagnostics, Mannheim, Germany) according to the manufacturer's instructions. […]
Percentages of macrophages, lymphocytes, neutrophils, and eosinophils were determined microscopically using standard histological criteria.
On days 1-6 after the last intranasal challenge with either OVA or saline, the lungs were analyzed by histology. […] The number of eosinophils in the lungs was quantified microscopically using a calibrated stage. […]

BALB/c mice [2] = test: Whole body plethysmography of airway obstruction in the murine OVA model; format: in vivo, mouse; conditions: preliminary experiment, peptide before allergen challenge, days 0-6
Protocol: Mice were immunized against OVA by i.p. injection and fourteen days later an intra-nasal (i.n.) challenge dose of OVA protein was administered. Three days later the degree of airway inflammation was assessed by bronchoalveolar lavage (BAL,) followed by counting the infiltrating leukocytes. In addition, the lungs were sectioned and stained with haematoxylin and eosin for histological analysis. In a preliminary experiment, live mice were monitored after treatment using whole body plethysmography to assess the degree of airway obstruction. The effects of antigen challenge on airway hyperreactivity of mice in the experimental model described above can be measured by whole body plethysmography. This can be used to make an accurate comparison with the airway hyperreactivity observed in human asthmatics. The mice are anesthetized with pentobarbitol (70-90 mg/kg body weight, i.p.), and the jugular vein is cannulated with PE 10 silastic tubing. The tracheae are then intubated with a specially-angled 18 gauge needle, the chest opened, and the tubing connected to a Harvard ventilator (tidal volume=0.2 ml, frequency 120 breaths/min, positive end-expiratory pressure 2.5-3.0 cm H2 O) and placed in a whole body plethysmograph. This ventilation maintains normal arterial blood gases in the subject mouse. The dead space volume is 0.025 ml. […]

Brown Norway rats = test: Brown Norway rat OVA model of asthma: BAL leukocytes, eosinophil peroxidase and myeloperoxidase; format: in vivo; conditions: administration prior to challenge with allergen
Protocol: The Brown Norway rat model was also employed to test the effects of TCR mimic peptides on reducing the symptoms of asthma. Similarly to the murine model described above, this model also involves immunisation with OVA. The model is described in Elwood, 1991. The model is illustrated in FIG. 5. In this model 10 rats were used per treatment group.
Rats were immunized against OVA by s.c. injection on Day 1, 14 and 21, and on Day 28 an inhalation challenge dose of OVA protein was administered. One day later (Day 29) the degree of airway inflammation was assessed by bronchoalveolar lavage (BAL), followed by counting of the infiltrating leukocytes and measurement of the activity of eosinophil peroxidase and myeloperoxidase.
Male Brown Norway rats (approximately 8 wks of age) were injected s.c. with 10 μg of OVA in 1 ml of alum adjuvant on day 1, 14 and 21. Concurrently, the animals received an i.p. injection of 0.25 ml Bordetella pertussis vaccine (Trivax-Evans Medical). Seven days. after the final sensitizing dose, the animals were restrained and exposed, nose only, to an aerosol of 10 mg/ml OVA for 1 h using a Wright nebuliser.
In these experiments the peptide was administered either intra-tracheally (i.t) (3 mg/ml, 50 μl in 0.9% saline per rat, 24 hours before OVA challenge), intra-nasally (i.n.) (50 mg/ml, 100 μl in 0.9% saline per rat, 24 hours before OVA challenge) or by inhalation (0.1 mg/ml in 0.9% saline, 50 ml delivered by aerosol at a flow rate of 1 ml/min, for a total of 50 minutes, using a Wright nebuliser to ten (10) rats, 24 h and 4 h prior to OVA challenge). […]
Twenty-four hours after the challenge with OVA, the rats from the different groups were anaesthetized by an i.p injection of sodium pentobarbital (100 mg/kg). […] The BAL fluid was centrifuged and the collected cells resuspended in 2 ml of PBS and the total number of leukocytes recovered were counted. The activity of eosinophil peroxidase and myeloperoxidase in the supernatant, following centrifugation (i.e., the cell-free BAL fluid) was determined by the method described in Schneider et al. 1997.

T cells = test: Blocking of T cell function; format: cell-based; conditions: in vitro experiments
sensitised animals = conditions: applied topically following application of a contact allergen; cited from earlier work
[3] = tested on: human patients with psoriasis, atopic eczema, lichen planus, or contact dermatitis; conditions: cited from earlier work

Question: For “NH2-Gly-Leu-Arg-Ile-Leu-Leu-Leu-Lys-Val-OH (H-GLRILLLKV-OH) [peptide, 9 amino acids, murine TCR-α transmembrane chain]”, which asthma symptoms (BALB/c mice [1]; asthmatic mice, non-transgenic system) is on record?
Answer: Its asthma symptoms is “reduces asthma symptoms”.

Question: What about the “eosinophilia in BAL” value (BALB/c mice [1]; group C: peptide i.n. 24 h before i.n. OVA challenge, two independent experiments, pooled data) of the same substance?
Answer: The value was “significant decrease”.

Question: What about the “eosinophilia on lung histology / eosinophil infiltration into lung tissue” value (BALB/c mice [1]; two independent experiments, pooled data) of the same substance?
Answer: Its value is “significant decrease”.

Question: What about the “eosinophilia on lung histology / eosinophil infiltration into lung tissue” value (BALB/c mice [1]; two independent experiments, pooled data, listed as TCR mimic peptide) of the same substance?
Answer: Its value is “marked reduction”.

Question: What about the “airway obstruction measured by whole body plethysmography” value (BALB/c mice [2]) of the same substance?
Answer: Its value is “significant effects”.

Question: What about the “airway obstruction measured by whole body plethysmography” value (BALB/c mice [2]; listed as TCR mimic peptide) of the same substance?
Answer: Its value is “significant reduction”.

Question: And the “eosinophil peroxidase activity in bronchoalveolar lavage fluid” value (Brown Norway rats)?
Answer: Its value is “reduction”.

Question: And the “leukocyte infiltration into lung tissue” value (Brown Norway rats)?
Answer: Its value is “marked reduction”.

Question: What about the “myeloperoxidase activity in bronchoalveolar lavage fluid” value (Brown Norway rats) of the same substance?
Answer: The value was “reduction”.

Question: What about the “optimal blocking concentration for T cells” value (T cells) of the same substance?
Answer: The value was 500 µM.

Question: And the “development of contact sensitivity” value (sensitised animals)?
Answer: Its value is “inhibited development of contact sensitivity”.

Question: And the “therapeutic activity in human patients” value [3]?
Answer: The value was “showed therapeutic activity”.
